{"source": "paper PMC9289467", "about": "“A Novel Multifunctional 5,6-Dimethoxy-Indanone-Chalcone-Carbamate Hybrids Alleviates Cognitive Decline in Alzheimer’s Disease by Dual Inhibition of Acetylcholinesterase and Inflammation” (Frontiers in Aging Neuroscience, 2022)", "key": {"[1]": {"biological_target": "T1, pre-formed Aβ40-AChE fibrils complex (Homo sapiens, UniProt P22303)", "T1 construct": "purchased Roche (AChE); Invitrogen (Aβ40) R005282 (AChE); 03-136 (Aβ40)", "T1 sequence (P22303 32-614, one chain of several)": "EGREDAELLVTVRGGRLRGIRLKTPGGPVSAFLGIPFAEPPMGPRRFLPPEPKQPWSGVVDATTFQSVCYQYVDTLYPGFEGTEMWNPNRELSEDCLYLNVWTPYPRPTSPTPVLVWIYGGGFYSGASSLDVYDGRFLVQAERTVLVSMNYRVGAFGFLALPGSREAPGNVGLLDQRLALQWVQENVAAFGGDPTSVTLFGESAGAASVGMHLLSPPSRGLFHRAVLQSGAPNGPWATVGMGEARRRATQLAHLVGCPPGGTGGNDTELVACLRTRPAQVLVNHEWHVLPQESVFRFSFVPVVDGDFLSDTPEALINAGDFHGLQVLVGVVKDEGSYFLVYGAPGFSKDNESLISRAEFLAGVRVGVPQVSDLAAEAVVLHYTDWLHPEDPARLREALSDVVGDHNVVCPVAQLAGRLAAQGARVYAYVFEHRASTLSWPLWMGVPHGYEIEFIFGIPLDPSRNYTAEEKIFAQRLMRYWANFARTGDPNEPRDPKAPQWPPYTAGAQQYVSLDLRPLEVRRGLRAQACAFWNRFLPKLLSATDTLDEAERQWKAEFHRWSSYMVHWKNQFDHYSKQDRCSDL", "assay": "Disaggregation of pre-formed Aβ40-AChE fibrils (ThT)", "assay_type": "biochemical", "details": "Aβ40 pre-aggregated with AChE for 2 days before co-incubation with AP5", "method": "The effects of AP5 on Aβ fibril formation and pre-formed Aβ fibrils disaggregation were determined using a previously described method of Thioflavin T (ThT, T3516, Sigma Aldrich, St. Louis, MO, United States) fluorometry ([Jan et al., 2010]).\nSupplementary materials and methods … ...1 […]\nSupplementary Figure 1 … .....7\nSupplementary Figure 2 … .....7\nSupplementary materials and methods\nPrepations ofspecimen for pharmacokinetics analysis\n24 h afterdosing. Brains were collected at0, 0.25, 0.5,2, 4,8 and 24 h after administration.Plasma extractions were performed by adding 90 μL methanol and 2 μL internalstandard letrozole (500 ng/mL) to a30 µL plasma sample. […]\nThen 90 μL methanol and 2 μL letrozolewere added to 30 µl brainhomogenates. The samples were vortexed for 3 min and centrifuged 15 min at25,000 g.The plasma and brainhomogenate were analyzed by UPLC-TSQ/MS (Thermo Fisher Scientific, Waltham, MA, USA). […]\nTo study the kinetics of Aβ-AChE fibril complex formation, 10 μM Aβ was mixed with AChE (R005282, Roche, Basel, Switzerland) and different concentrations AP5 and incubated with 10 μM ThT and 50 mM glycine-NaOH (pH 8.5) at 37°C, the ThT fluorescence was continually measured for 24 h at 30 min intervals. […] Fluorescence emission at485 nm was measured on a Spectra MAX GeminiXS fluorometerat an excitation wavelength of 450 nm. […]"}, "APPfl, CTFβ, BACE, PS1": {"tested_on": "APPfl, CTFβ, BACE, PS1", "assay": "Western blot of APP processing, APP/PS1 mice", "assay_type": "in vivo", "details": "cortex and hippocampus, AP5-treated vs APP/PS1 mice", "method": "APP/PS1 mice of ages 6 months were randomly divided into vehicle (APP/PS1, n = 10) and treatment groups (AP5, n = 10), which were intragastrically administered with AP5 (40 mg/kg) once daily for consecutive 5 months. AP5 was dissolved in distilled water containing 1% sodium carboxymethyl cellulose.\nFrozen hippocampus and cortex were homogenized in pre-cooling RIPA buffer (P0013B, Beyotime) supplemented with 1 mM phenylmethanesulfonyl fluoride (PMSF) and cocktail of protease and phosphatase inhibitors. […] The membranes were incubated with 5% fat-free milk blocking solution for 1 h at room temperature and then probed with primary antibodies overnight at 4°C. […] Densitometric analysis was performed using Quantity One software (Bio-Rad, Berkeley, CA, United States). […]\n(1:100, BAF2655, R&D, Minneapolis, MN, USA). […] For the quantification of Aβ plaque-associated microglia and astrocyte, Iba1- and GFAP-immunopositive cells around plaques were counted. On each slide, ten plaques were randomly determined and the microglia (nuclei) in the immediate vicinity (two times the plaque diameter) of each plaque were counted. For colocalization of PSD95 and synaptophysin, images were analyzed with the puncta analyzer plugin with a minimum pixel specification of 4 in Image Jand thresholding was consistent for every image. […]"}}}
{"smiles": "CCN(C)C(=O)Oc1cccc(/C=C2\\Cc3cc(OC)c(OC)cc3C2=O)c1", "note": "[AP5, (E)-3-((5,6-dimethoxy-1-oxo-1,3-dihydro-2H-inden-2-ylidene)-methyl)phenylethyl(methyl)carbamate]", "values": [{"measurement": "ThT fluorescence intensity, disaggregation of pre-formed Aβ40 fibrils", "setting": "[1]", "result": "marked decline of ThT fluorescence intensity"}, {"measurement": "expression levels of APPfl, CTFβ, BACE and presenilin 1", "setting": "APPfl, CTFβ, BACE, PS1", "result": "no significant changes"}]}
